Laboratory results: ChEMBL document CHEMBL3217691, “Discovery and optimization of efficacious neutral 4-amino-6-biphenyl-7,8-dihydropyrimido[5,4-f][1,4]oxazepin-5-one diacylglycerol acyl transferase-1 (DGAT1) inhibitors” (Medchemcomm, 2013)

Key:
[1] = in vitro; details: rat, hepatocytes
[2] = physchem; details: buffer, pH 7.4
[3] = Oral bioavailability in Han Wistar rat at 2.3 to […]; assay type: ADME, organism-based; details: in vivo
[4] = in vitro; details: human, Caco-2
[5] = in vivo; details: Han Wistar, rat, iv
[6] = Oral bioavailability in dog at 0.5 mg/kg; assay type: ADME, organism-based, Canis lupus familiaris; details: in vivo
[7] = Oral bioavailability in mouse at 2 mg/kg; assay type: ADME, organism-based; details: in vivo
[8] = Oral bioavailability in rat at 2 mg/kg; assay type: ADME, organism-based; details: in vivo
[9] = Half life in rat at 2 mg/kg, po; assay type: ADME, organism-based; set-up: dose 2 mg/kg, route oral; details: in vivo
[10] = Half life in mouse at 2 mg/kg, po; assay type: ADME, organism-based; set-up: dose 2 mg/kg, route oral; details: in vivo
[11] = Half life in dog at 0.5 mg/kg, iv; assay type: ADME, organism-based, Canis lupus familiaris; set-up: dose 0.5 mg/kg, route intravenous; details: in vivo
[12] = Half life in rat at 1 mg/kg, iv; assay type: ADME, organism-based; set-up: dose 1 mg/kg, route intravenous; details: in vivo
[13] = Half life in mouse at 2 mg/kg, iv; assay type: ADME, organism-based; set-up: dose 2 mg/kg, route intravenous; details: in vivo
[14] = tested on: Canis familiaris; assay: Volume of distribution at steady state in dog plasma at 0.5 mg/kg, iv and po; assay type: ADME, organism-based, Canis lupus familiaris; set-up: dose 0.5 mg/kg, route oral; details: in vivo
[15] = Volume of distribution at steady state in rat plasma at 1 mg/kg, iv and 2 mg/kg, po; assay type: ADME, organism-based; details: read-out: Vdss
[16] = tested on: Mus musculus; assay: Volume of distribution at steady state in mouse plasma at 2 mg/kg, iv and po; assay type: ADME, organism-based; set-up: dose 2 mg/kg, route oral; details: in vivo
[17] = Clearance in rat plasma at 1 mg/kg, iv and 2 mg/kg, po; assay type: ADME, organism-based

Nc1ncnc2c1C(=O)N(c1ccc(-c3ccc(CC(=O)O)cc3Cl)cc1)CCO2
hepatocyte CLint [1]: 14 µL/min/1e6 cells
logD [2]: -0.4

NC(=O)Cc1ccc(-c2ccc(N3CCOc4ncnc(N)c4C3=O)cc2)c(Cl)c1
hepatocyte CLint [1]: 35 µL/min/1e6 cells
logD [2]: 1.3

Nc1ncnc2c1C(=O)N(c1ccc(-c3ccc(CC(=O)N4CC[C@@H](O)C4)cc3Cl)cc1)CCO2
bioavailability ([3]; at 2.3 to […]): 15%
logD [2]: 1.1
Papp A→B [4]: 1.1 ×10⁻⁶ cm/s

Nc1ncnc2c1C(=O)N(c1ccc(-c3ccc(CC(=O)N4CC(O)C4)cc3Cl)cc1)CCO2
hepatocyte CLint [1]: < 3.1 µL/min/1e6 cells
logD [2]: 1.1

Nc1ncnc2c1C(=O)N(c1ccc(-c3ccc(CC(=O)N4CCNC(=O)C4)cc3Cl)cc1)CCO2
bioavailability ([3]; at 2.3 to […]): 3%
logD [2]: 0.9

CS(=O)(=O)Cc1ccc(-c2ccc(N3CCOc4ncnc(N)c4C3=O)cc2)c(Cl)c1
bioavailability ([3]; at 2.3 to […]): 61%
clearance [5]: 5 mL/min/kg
hepatocyte CLint [1]: < 2.8 µL/min/1e6 cells

CC(=O)N(C)Cc1ccc(-c2ccc(N3CCOc4ncnc(N)c4C3=O)cc2)c(Cl)c1
hepatocyte CLint [1]: 11 µL/min/1e6 cells
logD [2]: 1.9
Papp A→B [4]: 19.7 ×10⁻⁶ cm/s

CC(=O)NCc1ccc(-c2ccc(N3CCOc4ncnc(N)c4C3=O)cc2)c(Cl)c1
bioavailability ([3]; at 2.3 to […]): 100%
logD [2]: 1.8
Papp A→B [4]: 14.5 ×10⁻⁶ cm/s

CN(Cc1ccc(-c2ccc(N3CCOc4ncnc(N)c4C3=O)cc2)c(Cl)c1)S(C)(=O)=O
bioavailability ([3]; at 2.3 to […]): 28%
clearance [5]: 5 mL/min/kg
hepatocyte CLint [1]: 5.9 µL/min/1e6 cells

CS(=O)(=O)NCc1ccc(-c2ccc(N3CCOc4ncnc(N)c4C3=O)cc2)c(Cl)c1
bioavailability ([3]; at 2.3 to […]): 21%
logD [2]: 1.8
Papp A→B [4]: 11.3 ×10⁻⁶ cm/s

Nc1ncnc2c1C(=O)N(c1ccc(-c3ccc(Cn4cccnc4=O)cc3Cl)cc1)CCO2
hepatocyte CLint [1]: 18.4 µL/min/1e6 cells

Nc1ncnc2c1C(=O)N(c1ccc(-c3ccc(CN4CC[C@H](O)C4=O)cc3Cl)cc1)CCO2
hepatocyte CLint [1]: < 2 µL/min/1e6 cells
logD [2]: 1.1
Papp A→B [4]: 6.4 ×10⁻⁶ cm/s

CN(Cc1ccc(-c2ccc(N3CCOc4ncnc(N)c4C3=O)cc2)c(Cl)c1)C(=O)CN
hepatocyte CLint [1]: 4.9 µL/min/1e6 cells
logD [2]: 0.1
Papp A→B [4]: 0.2 ×10⁻⁶ cm/s

CN(Cc1ccc(-c2ccc(N3CCOc4ncnc(N)c4C3=O)cc2)c(Cl)c1)C(=O)CCN
hepatocyte CLint [1]: < 2 µL/min/1e6 cells
logD [2]: -0.5
Papp A→B [4]: 0.3 ×10⁻⁶ cm/s

CN(Cc1ccc(-c2ccc(N3CCOc4ncnc(N)c4C3=O)cc2)c(Cl)c1)C(=O)CCCN
hepatocyte CLint [1]: < 2 µL/min/1e6 cells
logD [2]: -1
Papp A→B [4]: 0.2 ×10⁻⁶ cm/s

Nc1ncnc2c1C(=O)N(c1ccc(-c3ccccc3Cl)cc1)CCO2
bioavailability ([3]; at 2.3 to […]): 65%
clearance [5]: 21 mL/min/kg
hepatocyte CLint [1]: 11.1 µL/min/1e6 cells
logD [2]: 2.9
Papp A→B [4]: 32.5 ×10⁻⁶ cm/s

N#Cc1ccc(-c2ccc(N3CCOc4ncnc(N)c4C3=O)cc2)c(Cl)c1
hepatocyte CLint [1]: 4.8 µL/min/1e6 cells
logD [2]: 2.4
Papp A→B [4]: 48.2 ×10⁻⁶ cm/s

Cc1ccc(-c2ccc(N3CCOc4ncnc(N)c4C3=O)cc2)c(Cl)c1
bioavailability ([3]; at 2.3 to […]): 14%
logD [2]: 3.5
Papp A→B [4]: 16.6 ×10⁻⁶ cm/s

Nc1ncnc2c1C(=O)N(c1ccc(-c3ccc(CO)cc3Cl)cc1)CCO2
Papp A→B [4]: 16.8 ×10⁻⁶ cm/s

Nc1ncnc2c1C(=O)N(c1ccc(-c3ccc(C(F)F)cc3Cl)cc1)CCO2
bioavailability ([3]; at 2.3 to […]): 150%
logD [2]: 3.2

Nc1ncnc2c1C(=O)N(c1ccc(-c3ccc(Cl)cc3Cl)cc1)CCO2
bioavailability [3]: 87%
logD [2]: > 3.9

Nc1ncnc2c1C(=O)N(c1ccc(-c3cccc(Cl)c3Cl)cc1)CCO2
bioavailability ([3]; at 2.3 to […]): 150%
clearance [5]: 24 mL/min/kg
hepatocyte CLint [1]: 9.3 µL/min/1e6 cells
logD [2]: 3.8

N#Cc1cccc(-c2ccc(N3CCOc4ncnc(N)c4C3=O)cc2)c1Cl
hepatocyte CLint [1]: 4.6 µL/min/1e6 cells
logD [2]: 2.5
Papp A→B [4]: 54.8 ×10⁻⁶ cm/s

Nc1ncnc2c1C(=O)N(c1ccc(-c3cc(Cl)ccc3Cl)cc1)CCO2
bioavailability ([3]; at 2.3 to […]): 110%
clearance [5]: 12 mL/min/kg
hepatocyte CLint [1]: 9.5 µL/min/1e6 cells
logD [2]: 3.7
Papp A→B [4]: 16.2 ×10⁻⁶ cm/s

Nc1ncnc2c1C(=O)N(c1ccc(-c3ccccc3)cc1)CCO2
logD [2]: 2.4
Papp A→B [4]: > 10 ×10⁻⁶ cm/s

Cc1ccccc1-c1ccc(N2CCOc3ncnc(N)c3C2=O)cc1
logD [2]: 2.7
Papp A→B [4]: > 10 ×10⁻⁶ cm/s

Nc1ncnc2c1C(=O)N(c1ccc(-c3c(F)cccc3F)cc1)CCO2
logD [2]: 2.5
Papp A→B [4]: > 10 ×10⁻⁶ cm/s

Nc1ncnc2c1C(=O)N(c1ccc(-c3ccccc3Cl)c(F)c1)CCO2
bioavailability ([3]; at 2.3 to […]): 14%
clearance [5]: 18 mL/min/kg
logD [2]: 3
Papp A→B [4]: > 10 ×10⁻⁶ cm/s

Cc1cccc(Cl)c1-c1ccc(N2CCOc3ncnc(N)c3C2=O)cc1
logD [2]: 3.4
Papp A→B [4]: > 10 ×10⁻⁶ cm/s

Nc1ncnc2c1C(=O)N(c1ccc(-c3c(F)cccc3F)c(F)c1)CCO2
logD [2]: 2.9
Papp A→B [4]: > 10 ×10⁻⁶ cm/s

Nc1ncnc2c1C(=O)N(c1ccc(-c3ncccc3Cl)cc1)CCO2
bioavailability ([3]; at 2.3 to […]): 68%
logD [2]: 1.5
Papp A→B [4]: > 10 ×10⁻⁶ cm/s

N#Cc1cccc(Cl)c1-c1ccc(N2CCOc3ncnc(N)c3C2=O)cc1
logD [2]: 2.1
Papp A→B [4]: > 10 ×10⁻⁶ cm/s

Nc1ncnc2c1C(=O)N(c1ccc(-c3ccccc3F)cc1)CCO2
bioavailability [6]: 76%
bioavailability [7]: > 100%
bioavailability [8]: 93%
half-life [9]: 198 min
half-life [10]: 186 min
half-life [11]: 72 min
half-life [12]: 402 min
half-life [13]: 210 min
Vdss [14]: 2.4 L/kg
Vd [15]: 1.9 L/kg
Vdss [16]: 0.6 L/kg
clearance [17]: 7.3 mL/min/kg
bioavailability ([3]; at 2.3 to […]): 93%
clearance [5]: 7 mL/min/kg
hepatocyte CLint [1]: < 2 µL/min/1e6 cells
Papp A→B [4]: > 10 ×10⁻⁶ cm/s
